Measured values published in patent US9511341B2, “Method for preparing acetazolamide sodium powder” (SCI Pharmtech, Inc., priority 2013, dated 2016).

Columns and labels:
[1] = cited from earlier work
[2] = Impurity D (hydrolysis product) in spray dried powder by USP HPLC method; format: physicochemical; conditions: air vs N2 as drying gas, judged by difference of impurity D
Procedure: In the developed spray drying process, the spray dryer was initiated in the preferred conditions (such as temperature and flow rate of the heated gas, and pneumatic pressure). In the meantime, an acetazolamide sodium solution was prepared by dispersing the acetazolamide powder into water in a flask inerted with N2 and then mixing the acetazolamide suspension with sodium hydroxide solution. After stirring for 15 min, an acetazolamide sodium solution was obtained and pumped into the spray dryer to proceed the drying process. During the drying process, the acetazolamide sodium solution was fed and atomized into mist by a two-fluid nozzle, and then the water was rapidly vaporized and accompanied with the nucleation of acetazolamide sodium particles in the gas flow of drying chamber. The formed particles were immediately carried into the cyclone, in which the separation of gas-solid was performed. The uncollected particles were recovered by the wet scrubber connected to the exit of cyclone. Finally, the acetazolamide sodium powder in the collector was examined by a halogen moisture analyzer and an analytical HPLC method specified in the current USP monograph of acetazolamide for injection.
In Example 2, the amount of impurity D in the acetazolamide free base was about 0.098-0.110 wt %. […]

Structure (SMILES) | Solubility in water [1] | Oxygen sensitivity during spray drying [2]
CC(=O)Nc1nnc(S(N)(=O)=O)s1 [acetazolamide sodium powder, Acetazolamide sodium] | easily dissolves in water | not oxygen-sensitive
CC(=O)Nc1nnc(S(N)(=O)=O)s1 [acetazolamide] | extremely low solubility in water | –
